Assay results published in paper PMC5365662, “A Short Double-Stapled Peptide Inhibits Respiratory Syncytial Virus Entry and Spreading” (Antimicrobial Agents and Chemotherapy, 2017).
Bridge positions count the residues as written; N and C are the ends. Square brackets hold non-standard residues; d marks the D form. Peptide text beside a SMILES is read from it. R5 = C=CCCC[C@@](C)(N)C(=O)O; S5 = C=CCCC[C@](C)(N)C(=O)O

Key:
[1] = system: rHRSV-mCherry in HEp-2 cells; experiment: rHRSV-mCherry inhibition assay; format: cell-based, human respiratory syncytial virus; conditions: Table 3 (Ala scan); HEp-2 cells, rHRSV-mCherry MOI 0.2, 2-fold serial dilutions (11 dilutions), duplicate; ± SD of fit
Procedure: To measure the inhibitory activity of the peptide, the mCherry red fluorescence was quantified 48 h postinfection (p.i.).
Viral replication was quantified by measuring the mCherry fluorescence at 48 h p.i. and normalized based on the fluorescence of infected and untreated cells. (B) Cytotoxicity assay. HEp-2 cells were incubated in the presence of serial dilutions of peptides, and cell survival was quantified using the CellTiter-Glo Luminescent cell viability assay 24 h after the addition of the peptides. The signal was normalized based on the luminescence obtained for untreated cells. Error bars are standard deviations from duplicates.
HEp-2 cells were seeded at 5 × 10^4 cells per well in a 96-well plate the day before the infection. Peptides were 2-fold serially diluted in dimethyl sulfoxide (DMSO) (11 dilutions) and then further diluted in EMEM without phenol red and preincubated for 15 to 20 min with rHRSV-mCherry ([24]) at a final dilution with an MOI of 0.2 ([24]). The cells were incubated with the virus-peptide mixtures for a period of 1.5 to 2 h. The medium was then replaced by EMEM without phenol red containing 2% fetal bovine serum and the same concentration of peptide as the one that was used during the infection step. Plates were incubated 48 h at 37°C, and the mCherry fluorescence was measured using a spectrofluorometer (Tecan infinite M200PRO) with excitation and emission wavelengths of 580 and 620 nm, respectively. Relative fluorescence was normalized by the fluorescence of nontreated infected cells. Noninfected HEp-2 cells were used as standards for fluorescence background levels. Each experiment was performed in duplicate and repeated at least twice. The resulting inhibition curves were fitted in Igor Pro as described above.

[2] = circular dichroism; conditions: 10 mM phosphate; pH 7.5; 25 °C; 50 uM

| SMILES | EC50 [1] [nM] | helicity [2] [%] |
| --- | --- | --- |
| CC[C@H](C)[C@@H]1NC(=O)[C@H](Cc2ccccc2)NC(=O)[C@@](C)(NC(=O)[C@H](CC(C)C)NC(=O)[C@H](CO)NC(=O)[C@]2(C)CCCC=CCCC[C@@](C)(NC(=O)[C@H](CCC(=O)O)NC(C)=O)C(=O)N[C@@H]([C@@H](C)CC)C(=O)N[C@@H](CC(N)=O)C(=O)N2)CCCC=CCCC[C@@](C)(C(=O)N[C@@H](CO)C(=O)N[C@@H](CC(=O)O)C(=O)N[C@@H](C)C(=O)N[C@@H](CC(C)C)C(=O)N[C@@H](CC(C)C)C(=O)N[C@@H](Cc2c[nH]cn2)C(=O)N[C@@H](CC(N)=O)C(=O)N[C@H](C(N)=O)C(C)C)NC(=O)[C@H](CCCNC(=N)N)NC1=O [Peptide E511A] (Ac-E[R5]IN[S5]SL[S5]FIR[S5]SDALLHNV-NH2; staple 2-5, 8-12) | 1000 ± 30 | 73 |
| CC[C@H](C)[C@H](NC(=O)[C@H](CCCCN)NC(=O)[C@H](CCC(=O)O)NC(C)=O)C(=O)N[C@@H](C)C(=O)N[C@@H](CCC(N)=O)C(=O)N[C@@H](CO)C(=O)N[C@@H](CC(C)C)C(=O)N[C@@]1(C)CCCC=CCCC[C@@](C)(C(=O)N[C@@H](CO)C(=O)N[C@@H](CC(=O)O)C(=O)N[C@@]2(C)CCCC=CCCC[C@@](C)(C(=O)N[C@H](C(N)=O)C(C)C)NC(=O)[C@H](Cc3c[nH]cn3)NC(=O)[C@H](CC(C)C)NC(=O)[C@H](CC(C)C)NC2=O)NC(=O)[C@H](CCCNC(=N)N)NC(=O)[C@H]([C@@H](C)CC)NC(=O)[C@H](Cc2ccccc2)NC1=O [Peptide N500A] (Ac-EKIAQSL[S5]FIR[S5]SD[S5]LLH[S5]V-NH2; staple 8-12, 15-19) | 20400 ± 2400 | 60 |
| CC[C@H](C)[C@H](NC(=O)[C@H](CCCCN)NC(=O)[C@H](CCC(=O)O)NC(C)=O)C(=O)N[C@@]1(C)CCCC=CCCC[C@@](C)(C(=O)N[C@@H](Cc2ccccc2)C(=O)N[C@H](C(=O)N[C@@]2(C)CCCC=CCCC[C@@](C)(C(=O)N[C@@H](CC(C)C)C(=O)N[C@@H](CC(C)C)C(=O)N[C@@H](Cc3c[nH]cn3)C(=O)N[C@@H](CC(N)=O)C(=O)N[C@H](C(N)=O)C(C)C)NC(=O)[C@H](CC(=O)O)NC(=O)[C@H](CO)NC(=O)[C@H](CCCCN)NC2=O)[C@@H](C)CC)NC(=O)[C@H](CC(C)C)NC(=O)[C@H](C)NC(=O)[C@H](CCC(N)=O)NC1=O [Peptide S502A] (Ac-EKI[S5]QAL[S5]FI[S5]KSD[S5]LLHNV-NH2; staple 4-8, 11-15) | 660 ± 260 | 15 |
| CC[C@H](C)[C@H](NC(=O)[C@H](CCCCN)NC(=O)[C@H](C)NC(C)=O)C(=O)N[C@@]1(C)CCCC=CCCC[C@@](C)(C(=O)N[C@@H](Cc2ccccc2)C(=O)N[C@H](C(=O)N[C@@]2(C)CCCC=CCCC[C@@](C)(C(=O)N[C@@H](CC(C)C)C(=O)N[C@@H](CC(C)C)C(=O)N[C@@H](Cc3c[nH]cn3)C(=O)N[C@@H](CC(N)=O)C(=O)N[C@H](C(N)=O)C(C)C)NC(=O)[C@H](CC(=O)O)NC(=O)[C@H](CO)NC(=O)[C@H](CCCCN)NC2=O)[C@@H](C)CC)NC(=O)[C@H](CC(C)C)NC(=O)[C@H](CO)NC(=O)[C@H](CCC(N)=O)NC1=O [Peptide E497A] (Ac-AKI[S5]QSL[S5]FI[S5]KSD[S5]LLHNV-NH2; staple 4-8, 11-15) | 1160 ± 80 | 38 |
